Reference: US20110311643A1, “SUPPLEMENTED MATRICES FOR THE REPAIR OF BONE FRACTURES” (Kuros Biosurgery AG, priority 2005, published 2011)
Marks after values point to notes of the source that are not given here.

What was measured:
[1] = test system: acute, open tibial shaft fractures; test: Phase II clinical study of I-040202 in tibial shaft fractures; assay type: in vivo, patients; settings: Intent-to-Treat
Text: This was a Phase II, prospective, randomized, controlled, open-label (dose-blinded), parallel-group, multi-center clinical study of the efficacy and safety of TGplPTH1-34 in a matrix made of fibrin (I-040202) in patients with acute, open tibial shaft fractures. The supplemented matrix was applied directly to the fracture site in the form of a paste. A total of 200 patients were randomized and treated in 31 centers across Europe.
The study consisted of four study groups: one control group using standard of care (SoC) which included intramedullary nailing and soft tissue management, and three treatment groups using 4 mL of I-040202 containing TGplPTH1-34 at concentrations of 0.133, 0.4 and 1.0 mg/mL fibrin matrix respectively (different concentrations of TGplPTH1-34), as an adjunct to SoC. Patients followed up clinically and radiologically on a monthly basis until 6 months post-surgery, and thereafter at 9 and 12 months post-surgery.
The primary endpoint was the proportion of patients who had fracture healing at 6 months as assessed by the investigator using radiographic and clinical parameters. Three doses of I-040202 in combination with SoC were compared against SoC alone.

[2] = test system: 1 cm segmental tibial defect; test: Sheep tibial defect model, supplemented fibrin matrix with TCP granules; assay type: in vivo
Description: The fibrin matrix was formed starting from the TISSEEL® Kit (Baxter AG, CH-8604 Volketswil/ZH) giving 4 mL fibrin matrix. TISSEEL® is produced from human derived pooled plasma and the content of active ingredients may vary from lot to lot within predefined ranges.
Matrix: A supplemented fibrin matrix containing granular material and PTH fusion peptide (TGplPTH1-34) was prepared using 3 separate syringes, a two-way syringe containing fibrin precursor solution and PTH fusion peptide (syringes 1 and 2) and two one-way syringes, one containing water and the other containing granules (syringes 3 and 4).
First the hydroxyapatite/calcium phosphate granules in syringe 4 were wetted by injection of the water of syringe 3. The fibrin precursor solution of syringe 1 (fibrinogen and TGplPTH1-34 suspended in a solution with aprotinin, a serine proteinase inhibitor which helps reduce fibrolysis to retain the integrity of the fibrin matrix) was mixed with the fibrin precursor solution of syringe 2 (thrombin in a calcium chloride solution). TGplPTH1-34 was formulated into the fibrinogen component to give a final concentration in the matrix varying from of 0.1 mg/mL to 10 mg/mL of the fibrin matrix and during the gelation process TGplPTH1-34 became crosslinked to the matrix. Fibrin precursor solutions also contained other components of fibrin matrix, such as plasma fibronectin, Factor XIIIa, plasminogen, and human albumin. When the precursor solutions are in equal volumes, a clotting process occurs to form fibrin. The clotting process takes place over several minutes which allows for the simultaneous injection of the mixed solutions into syringe 4, which contain the wetted granules. The matrix can then be introduced at the site of need where it solidifies. Enough matrix was placed in the defect to completely fill it.
Animals: A total of 42 Swiss Alpine, female sheep ranging between 44-83 kg (mean: 62.8 kg) and 2.25-4.75 years of age were chosen as experimental animals. Seven groups were formed with autografts as positive and fibrin matrix plus TCP granules as negative controls. The other groups consisted of the same fibrin matrix and TCP granules, but differed only in dosage of the TGplPTH1-34. Groups were followed for 12 weeks, when animals were sacrificed at a university-owned slaughter house. All animal experiments were conducted according to the Swiss laws of animal protection and welfare and were authorized by the local Ethical Committee and Veterinary Authorities.
Surgery: A medial approach to the tibia shaft was performed directly above the bone and extending from the distal aspect of the stifle to the hock joint, the medial fascia of the tibia was incised and the medial aspect of the tibia exposed without disturbing the periosteum. A 11 hole, 3.5 mm broad dynamic compression plate (Synthes) was contoured to the shaft with the distal end of the plate ending above the tibiotarsal joint. The plate was fixed to the bone using eleven 3.5 mm screws in a neutral position and distributing five screw holes distally and six proximally to the planned defect. The screws and plate were removed. Thereafter, the defect was marked on the bone with a scalpel blade using a gage ensuring a standardized 1 cm defect between the 5th and 6th screw hole. With an oscillating saw, the defect was cut under constant irrigation and preservation of soft tissues. The 1 cm segment including the circumferential periosteum was carefully removed and local bleeding out of the bone marrow or local soft tissue was stopped applying pressure with a gauze. The plate was repositioned and all screws reinserted before the matrix was filled into the bone gap as described above. Care was taken to distribute the matrix equally underneath the plate, on the lateral and as well as the transcortex.
For the positive autograft control group, autogenic bone was harvested through a local incision directly above the iliac crest. […]

[3] = Stability of PTH / TGPTH in buffer (spiked samples, direct ELISA); assay type: physicochemical; settings: 0.5 μg/mL; 37° C.; distilled water, phosphate buffer saline, tris-buffer saline
Description: For the first release assay a fibrin matrix of 50 μl with 0.1 mg PTH or TGPTH per ml fibrin matrix was incubated at 37° C. in 10 ml buffer. Therefore, the concentration of PTH or TGPTH in the buffer in case of a total release would be 0.5 μg PTH or TGPTH/mL fibrin matrix. In order to compare the stability of PTH or TGPTH during the assay, samples of PTH or TGPTH were diluted directly in the buffer to a concentration of 0.5 μg PTH or TGPTH/mL fibrin matrix. Different buffers were tested: distilled water, phosphate buffer saline, tris-buffer saline.
Aliquots were taken at days 0, 1, 2, 4 and 6 and analysed by direct ELISA. […] Therefore, no conclusion could be made on the release data. The PTH stability was certainly affected by its low concentration and the buffers that were not optimal.
The release experiment was repeated by using a stabilizing buffer containing 50 mM mannitol in a 10 mM sodium acetate buffer. In addition, the buffer was exchanged every 2 days in order to prevent any degradation of peptide. […] The concentration of PTH or TGPTH in the buffer in case of a total release would be 100 μg/mL fibrin matrix (200 times more than before). […] Samples were collected every 2 to 4 days (with a change of buffer) during 2 weeks and analysed by direct ELISA. […]

[4] = 1 mg TGplPTH1-34/mL fibrin matrix

Row | Compound | % healed at 6 months (Clinician's assessment) ([1]; 0.133 mg TGplPTH1-34/ml fibrin matrix + SoC) | % healed at 6 months (Clinician's assessment) ([1]; 0.4 mg TGplPTH1-34/ml fibrin matrix + SoC, p = 0.084 vs SoC alone) | % healed at 6 months (Clinician's assessment) ([1]; 1.0 mg TGplPTH1-34/ml fibrin matrix + SoC) | amount of endosteal bone formation (histomorphometry) [2, 4] | rate of granule resorption (histomorphometry) [2, 4] | animals showing bridging ([2]; 1 mg TGplPTH1-34/mL fibrin matrix, 8 weeks) | animals healed showing stable, clinical unions ([2]; 1 mg TGplPTH1-34/mL fibrin matrix, after 12 weeks) | animals showing bending of the plate ([2]; 1 mg TGplPTH1-34/mL fibrin matrix, within the first four weeks) | periosteal healing compared to negative control material ([2]; 0.4 and 1 mg TGplPTH1-34/mL fibrin matrix) | healing compared to autograft ([2]; 0.4 and 1 mg TGplPTH1-34/mL fibrin matrix, 12 weeks) | animals with unstable fracture site ([2]; 12 weeks, plate removed, movement/torsion of the limb, TGplPTH1-34 at 1 mg/mL fibrin matrix, FIG. 4) | periosteal healing response (radiographs) ([2]; doses between 0.4 and 2 mg TGplPTH1-34/mL fibrin matrix, every time point) | rates of endosteal bone formation and granule resorption ([2]; higher doses of TGplPTH1-34) | stability of the defect at the endpoint ([2]; higher doses than about 1 mg TGplPTH1-34/mL fibrin matrix, 12 weeks) | time stable in buffer [3]
1 | NQEQVSPLYKNRSVSEIQLMHNLGKHLNSMERVEWLRKKLQDVHNF (Modified Parathyroid hormone (PHT), comprisig amino acids 1-34 of native PTH as well as a transglutaminase substrate domain and a plasmin-degradable sequence) [TGplPTH1-34] | 75.6% (34 of 45) | 80.4%* (37 of 46) | 69.2% (27 of 39) | higher than with the other concentrations of TGplPTH1-34 | highest resorption rate | one | 5 animals | one | statistically stronger periosteal healing | equivalent to autograft | one | much stronger periosteal healing response | lower rates of both endosteal bone formation and granule resorption | much lower stability | –
2 | CC[C@H](C)[C@H](NC(=O)[C@H](CCC(=O)O)NC(=O)[C@H](CO)NC(=O)[C@@H](NC(=O)[C@@H](N)CO)C(C)C)C(=O)N[C@@H](CCC(N)=O)C(=O)N[C@@H](CC(C)C)C(=O)N[C@@H](CCSC)C(=O)N[C@@H](Cc1cnc[nH]1)C(=O)N[C@@H](CC(N)=O)C(=O)N[C@@H](CC(C)C)C(=O)NCC(=O)N[C@@H](CCCCN)C(=O)N[C@@H](Cc1cnc[nH]1)C(=O)N[C@@H](CC(C)C)C(=O)N[C@@H](CC(N)=O)C(=O)N[C@@H](CO)C(=O)N[C@@H](CCSC)C(=O)N[C@@H](CCC(=O)O)C(=O)N[C@@H](CCCN=C(N)N)C(=O)N[C@H](C(=O)N[C@@H](CCC(=O)O)C(=O)N[C@@H](Cc1c[nH]c2ccccc12)C(=O)N[C@@H](CC(C)C)C(=O)N[C@@H](CCCN=C(N)N)C(=O)N[C@@H](CCCCN)C(=O)N[C@@H](CCCCN)C(=O)N[C@@H](CC(C)C)C(=O)N[C@@H](CCC(N)=O)C(=O)N[C@@H](CC(=O)O)C(=O)N[C@H](C(=O)N[C@@H](Cc1cnc[nH]1)C(=O)N[C@@H](CC(N)=O)C(=O)N[C@@H](Cc1ccccc1)C(=O)O)C(C)C)C(C)C [PTH1-34] | – | – | – | – | – | – | – | – | – | – | – | – | – | – | ≤ 2 days
